Data from patent US6541495B1, “Carboxylic acid derivatives as inhibitors of hyperproliferation diseases” (Pfizer INC, priority 1999, dated 2003).

Molecular target: T1, VEGF/GAG (glycosaminoglycan) binding (purified VEGF165, [125I]heparin-16-mer) (Homo sapiens, UniProt P15692)
T1 construct: purchased Repligen, Inc
T1 sequence (P15692 27-191 isoform P15692-4): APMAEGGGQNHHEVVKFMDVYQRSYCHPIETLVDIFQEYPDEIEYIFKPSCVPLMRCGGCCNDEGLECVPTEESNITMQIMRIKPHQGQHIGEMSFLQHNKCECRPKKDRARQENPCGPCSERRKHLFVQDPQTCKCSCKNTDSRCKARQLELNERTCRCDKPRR
Assay: VEGF/GAG (glycosaminoglycan) binding inhibition, [125I]heparin-16-mer filter plate assay
Conditions: activity data for representative compounds of formula I; in vitro VEGF165 / [125I]heparin-16-mer binding, 60 minutes at room temperature
Procedure: The in vitro activity of the compounds of formula I in inhibiting VEGF/GAG (glycosaminoglycan) binding may be measured using the assay described in U.S. Pat. No. 5,795,860, the subject matter of which is incorporated herein by reference.
Using mixed cellulose ester 96-well filter plates, 150 μL of Dulbeccos PBS (phosphate buffered saline) containing 10% ovalbumin is added. Compound (5.0 μL) is added at a final concentration of 1.8 μM. Compounds are dissolved in 8% DMSO (final DMSO concentration is 0.16%) and tested at concentrations of 32, 10, 3.2, 1.0, 0.32 and 0.10 μM. A mixture of [^125I]heparin-16-mer (4500 cpm per well), purified VEGF165 (20 nM final concentration/well, prepared by Repligen, Inc.) and Dulbeccos PBS with 10% ovalbumin is added to the 96-well plate in a volume of 100 μL. Nonspecific binding is defined using 10 μM heparin-sodium from porcine intestinal mucosa. The assay plate is incubated for 60 minutes at room temperature, filtered using a Millipore filtration apparatus, the plastic bottom plate is removed and the filter plate is allowed to completely dry. The plate bottom is sealed with plastic plate seal and 25 μL of scintillation cocktail is added to each well. The top plate is sealed and is counted for radioactivity on a Microbeta Scintillation Counter. The assay is run in a final volume of 250 μL.

| Compound | IC50 |
| --- | --- |
| Cc1oc(-c2ccccc2)nc1Cc1cc2cc(CC(SCc3ccccc3)C(=O)O)ccc2o1 (stereo not drawn) [2-Benzylsulfanyl-3-[2-(5-methyl-2-phenyl-oxazol-4-ylmethyl)-benzofuran-5-yl]-propionic acid] | 2.6 µM |
| Cc1oc(-c2ccccc2)nc1Cc1cc2cc(CC(Oc3ccccc3)C(=O)O)ccc2o1 (stereo not drawn) [3-[2-(5-Methyl-2-phenyl-oxazol-4-ylmethyl)-benzofuran-5-yl]-2-phenoxy-propionic acid] | 2 µM |
| CCCSC(Cc1ccc2oc(Cc3nc(-c4ccccc4)oc3C)cc2c1)C(=O)O (stereo not drawn) [3-[2-(5-Methyl-2-phenyl-oxazol-4-ylmethyl)-benzofuran-5-yl]-2-propylsulfanyl-propionic acid] | 1.5 µM |
| Cc1oc(-c2ccccc2)nc1Cc1cc2cc(CC(OCCCO)C(=O)O)ccc2o1 (stereo not drawn) [2-(3-Hydroxy-propoxy)-3-[2-(5-methyl-2-phenyl-oxazol-4-ylmethyl)-benzofuran-5-yl]-propionic acid] | 14 µM |
| CSC(Cc1ccc(OCCc2nc(-c3ccccc3)oc2C)cc1)C(=O)O (stereo not drawn) [3-{4-[2-(5-Methyl-2-phenyl-oxazol-4-yl)-ethoxy]-phenyl}-2-methylsulfanyl-propionic acid] | 4.5 µM |
| CSC(Cc1ccc2oc(Cc3nc(-c4cccc(C)c4)oc3C)cc2c1)C(=O)O (stereo not drawn) [2-Methylsulfanyl-3-[2-(5-methyl-2-m-tolyl-oxazol-4-ylmethyl)-benzofuran-5-yl]-propionic acid] | 8 µM |
| C=CCOC(Cc1ccc2oc(Cc3nc(-c4ccccc4)oc3C)cc2c1)C(=O)O (stereo not drawn) [2-Allyloxy-3-[2-(5-methyl-2-phenyl-oxazol-4-ylmethyl)-benzofuran-5-yl]-propionic acid] | 13 µM |
| Cc1oc(-c2ccccc2)nc1Cc1cc2cc(CCC(=O)O)ccc2o1 [3-[2-(5-Methyl-2-phenyl-oxazol-4-ylmethyl)-benzofuran-5-yl]-propionic acid] | 6.8 µM |
| CCCCCCCCSC(Cc1ccc2oc(Cc3nc(-c4ccccc4)oc3C)cc2c1)C(=O)O (stereo not drawn) [3-[2-(5-Methyl-2-phenyl-oxazol-4-ylmethyl)-benzofuran-5-yl]-2-octylsulfanyl-propionic acid] | 0.8 µM |
